# Measured values published in US20100261796A1, “Use of Novel Compounds for IBD Treatment” (Ferring B.V., priority 2005, published 2010).
# Tests used:
# TNBS-induced colitis = assay: TNBS colitis induction model; assay type: in vivo, C57Bl/6 mice
# Experimental: Animals were housed ten per cage and had free access to standard mouse chow and tap water. For colitis induction, C57Bl/6 mice were anesthetized for 90-120 minutes and received an intra-rectal administration of TNBS (40 μL, 150 mg/kg; provided by Sigma-Aldrich, FR) dissolved in a 1:1 mixture of 0.9% NaCl with 100% ethanol. Control mice received a 1:1 mixture of 0.9% NaCl with 100% ethanol or a saline solution using the same technique. Animals were sacrificed 5 days after TNBS administration. The anti-inflammatory effects of compound 17 were tested by administering the compound once daily by subcutaneous injection, starting one day before colitis induction. Macroscopic, histology and biologic assessments of colitis were performed blindly by two investigators.
# The colon of each mouse was examined under a dissecting microscope (magnification, ×5) to evaluate the macroscopic lesions according to the established so-called Wallace criteria. The Wallace score rates macroscopic lesions on a scale from 0 to 10 based on features reflecting inflammation, such as hyperemia, thickening of the bowel, and extent of ulceration (Wallace, J. L. et al. Gastroenterology 96(1):29-36 (1989)). A colon specimen located 2 cm above the anal canal was cut into three parts, one of which was fixed in 4% paraformaldehyde and embedded in paraffin. Sections stained with May-Grunwald-Giemsa were examined blindly by two investigators and scored according to the so-called Ameho criteria (Ameho, C. K. et al. Gut 41(4):487-493 (1997)). This grading on a scale from 0 to 6 takes into account the degree of inflammation infiltrate, the presence of erosion, ulceration, or necrosis, and the depth and surface extension of lesions.
# Mice receiving TNBS injections had severe lesions five days after colitis induction, showing necrosis of the colon and leading to mortality in 70% of the mice. TNBS-induced colitis was characterized by hyperemia and extensive area of ulceration. These lesions were characterized by neutrophilic infiltration extending to the mucosa deep into the muscular layer. […]
# DSS-induced colitis = assay: Dextran sulfate sodium (DSS) colitis induction model; assay type: in vivo, mice; settings: preventive treatment, 10^−1 mg/kg/d, 5% DSS for seven days
# Experimental: Mice were fed 5% DSS (molecular weight 30-40 kDa) for seven days. DSS was dissolved in sterile distilled water and given ad libitum throughout the experiment. Stool consistency, occult blood or the presence of macroscopic rectal bleeding gross were determined daily and blindly by two experiment investigators, as described previously (Hartmann et al., J Pharmacol Exp Ther., 292(1):22-30 (2000)). […] Bleeding was scored 0 point for no blood in hemoccult, 2 points for positive hemoccult, and 4 points for gross bleeding from the rectum. These scores were added, resulting in a total clinical score ranging from 0 (healthy) to 8 (maximal activity of colitis). […] For cell infiltration of inflammatory cells, rare inflammatory cells in the lamina propria were counted as 0; increased numbers of inflammatory cells, including neutrophils in the lamina propria as 1; confluence of inflammatory cells, extending into the submucosa as 2; and a score of 3 was given for transmural extension of the inflammatory cell infiltrate. For epithelial damage, absence of mucosal damage was counted as 0, discrete focal lymphoepithelial lesions were counted as 1, mucosal erosion/ulceration was counted as 2, and a score of 3 was given for extensive mucosal damage and extension through deeper structures of the bowel wall. […]
smiles,measurement,setting,value
"NC(=O)CCCN(CCCC1CCCCC1)C(=O)Nc1ccccc1 [Compound 17, 4-[1-(3-cyclohexylpropyl)-3-phenylureido]butyramide]","Ameho score (histology, scale 0 to 6)","TNBS-induced colitis; 10^−1 mg/kg/d subcutaneously once daily, starting one day before colitis induction, five days after TNBS administration, untreated TNBS mice 5.3±0.15",3.9±0.62
same,"Wallace score (macroscopic lesions, scale 0 to 10)","TNBS-induced colitis; 10^−1 mg/kg/d subcutaneously once daily, starting one day before colitis induction, five days after TNBS administration, untreated TNBS mice 7.0±0.37",3.8±0.89
same,mortality rates,"TNBS-induced colitis; 10^−1 mg/kg/d subcutaneously, TNBS-induced colitis, mortality in 70% of untreated TNBS mice",not associated with a significant improvement of mortality rates
same,"scores for clinical parameters (stool consistency + bleeding, 0 to 8)","DSS-induced colitis; untreated 3.7±0.14, P=0.003",2.8±0.13
same,histologic score (0 to 6),"DSS-induced colitis; untreated 5.8±0.13, P=0.001",3.9±0.39
